# Measured values published in US20250009649A1, “Implants for Loss of Taste and Smell” (Cyrano Therapeutics, Inc., priority 2021, published 2025).
# Key:
# [1] = system: patient who had loss of taste and smell from COVID-19; test: Psychophysical smell test, forced-choice, three-stimuli, stepwise-staircase technique (detection and recognition thresholds for four odors); type: in vivo, human
# Excerpt: The Patient initially reported their sensory dysfunction as either loss of taste (i.e., flavor) and/or smell function. This subjective response was documented by objective psychophysical measurements of olfactory function administered to each patient by use of a forced-choice, three-stimuli, stepwise-staircase technique in a fixed, controlled design (1, 2). Efficacy of this technique and results of testing were previously documented in a double-blind clinical trial (2). Four odors were used; they were pyridine (dead-fish odor), nitrobenzene (bitter-almond odor), thiophene (petroleum-like odor) and amyl acetate (banana-oil odor). Detection thresholds (DT), and recognition thresholds (RT) values for each odor were determined as previously described (1, 2). Thresholds were converted into bottle units (BU) as previously described (2) and results reported as M of correct responses for each odor in each treatment group. References: (1) Henkin, R. I. Evaluation and treatment of human olfactory dysfunction, in Otolaryngology (English, G. M. Ed.), Lip pincott, Philadelphia, 1993, Vol. 2, pp. 1-86. (2) Henkin, R. I., Schecter, P. J., Friedewald, W. T., DeMets, D. L., Raff, M. S. A double blind study of the effects of zinc sulfate on taste and smell dysfunction. Amer. J. Med. Sci. 1976; 272: 285-299.
# (§1) Theophylline was administered to a patient who had loss of taste and smell from COVID-19. A formulation containing 80 μg of theophylline was administered via two actuations from nasal spray device once per day. Prior to the initial administration of theophylline, a baseline smell test was performed. A follow-up smell test was performed 3 months after the initial administration. […] The patient's detection threshold (DT) and recognition threshold (RT) for pyridine (Pyr), nitrobenzene (NO2B), thiophene (Thio) and amyl acetate (AA) was determined before treatment (pre) and after treatment (3M). In all four odorant tests, the patient's detection threshold and recognition threshold improved. An improvement of 1 bottle unit means that a patient could detect and/or recognize an odorant that was 10 times lower in concentration, when compared to baseline. For example, the recognition threshold (RT) of AA improved by 8 bottle units, also equivalent to an improvement of 8 orders of magnitude. In this case, the patient could detect a concentration of AA that was 10^8 lower in concentration. Bottle unit numbers that are 5 or lower are considered to be in the range of normal.
# [2] = system: patient who had loss of taste and smell from COVID-19; test: Side effects reported during intranasal theophylline treatment; type: in vivo, human; settings: 80 μg theophylline via nasal spray once per day, 3 months
# Method: as §1
# [3] = 3 months after initial administration, 80 μg theophylline nasal spray once per day, Pre value 10
# [4] = 3 months after initial administration, 80 μg theophylline nasal spray once per day, Pre value 11
# [5] = 3 months after initial administration, 80 μg theophylline nasal spray once per day, Pre value 12
smiles,measurement,setting,value
Cn1c(=O)c2[nH]cnc2n(C)c1=O [theophylline],"DT Thio (detection threshold, thiophene)",[1]; [3],4 bottle units
same,"RT Thio (recognition threshold, thiophene)",[1]; [3],4 bottle units
same,"DT AA (detection threshold, amyl acetate)",[1]; [4],4 bottle units
same,"DT NO2B (detection threshold, nitrobenzene)",[1]; [4],9 bottle units
same,"RT Pyr (recognition threshold, pyridine)",[1]; [4],7 bottle units
same,"DT Pyr (detection threshold, pyridine)","[1]; 3 months after initial administration, 80 μg theophylline nasal spray once per day, Pre value 11, 5 or lower is normal",7 bottle units
same,"RT AA (recognition threshold, amyl acetate)",[1]; [5],4 bottle units
same,"RT NO2B (recognition threshold, nitrobenzene)",[1]; [5],9 bottle units
same,improvement of recognition threshold (RT) of AA,"[1]; 3 months vs baseline, 80 μg theophylline nasal spray once per day",8 bottle units
same,factor by which the detectable concentration of AA was lower,"[1]; 3 months vs baseline, 1 bottle unit = 10 times lower concentration",10^8
same,detection threshold and recognition threshold in all four odorant tests,"[1]; 3 months vs baseline, pyridine, nitrobenzene, thiophene, amyl acetate",improved
same,side effects,[2],No side effects
